This is an account of results in US7385026B1, “Modified ghrelin polypeptides” (priority 1999, dated 2008).

Read-outs that look alike come from different tables or passages of the source. Peptide text beside a SMILES is read from it. * marks the point of attachment. Octanoyl = CCCCCCCC(=O)*

This assay has as its target T1, rat GHS-receptor (GHR-R) (Rattus norvegicus, UniProt O08725).
T1 construct: A full-length cDNA for rat GHR-R was obtained by RT-PCR; expressed in transfected cells
Put plainly: Ca-releasing activity (increase in intracellular calcium) in CHO-GHSR62 cells, FLIPR. Type of assay: cell-based. Summed up:
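CHO cells stably expressing full-length rat GHS-R (CHO-GHSR62) were cultured 12–15 h, loaded with 4 μM Fluo4 for 1 h and washed with Hank's BSS containing 20 mM Hepes and 2.5 mM probenecid. Ca-releasing activity of ghrelin peptides, fragments or derivatives was read by FLIPR as the fluorescence change after sample addition.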
(Calcium flux is commonly read through the fluorescence of an indicator in the cells.)

The mark [1] stands for this setting: Ca-releasing activity EC50, CHO-GHSR62 cells (CHO cells expressing rat GHS receptor), FLIPR.
Where [2] appears, read: CHO-GHSR62 cells (CHO cells expressing rat GHS receptor), FLIPR, read-out: Ca-releasing activity EC50.
Setting [3] is: Table 3, Example 9: protease fragments or synthetic peptides, CHO-GHSR62 cells, read-out: Ca-releasing activity (EC50).

T1 sequence (O08725 whole entry): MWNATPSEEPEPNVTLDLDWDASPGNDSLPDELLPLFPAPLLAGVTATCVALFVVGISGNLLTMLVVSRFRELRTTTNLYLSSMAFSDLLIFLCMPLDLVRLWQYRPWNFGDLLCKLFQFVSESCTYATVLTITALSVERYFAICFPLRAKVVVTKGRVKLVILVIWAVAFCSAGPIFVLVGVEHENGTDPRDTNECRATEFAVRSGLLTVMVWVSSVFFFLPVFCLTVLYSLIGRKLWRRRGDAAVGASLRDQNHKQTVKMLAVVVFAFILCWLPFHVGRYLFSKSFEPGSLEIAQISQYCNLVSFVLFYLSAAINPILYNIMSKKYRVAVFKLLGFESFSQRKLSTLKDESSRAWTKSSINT

As a reminder, the EC50 is the concentration that produces a half-maximal response. Turning to `CC(C)C[C@H](NC(=O)[C@H](CCCCN)NC(=O)[C@H](C)NC(=O)[C@@H]1CCCN1C(=O)[C@@H]1CCCN1C(=O)[C@H](CCCCN)NC(=O)[C@H](CCCCN)NC(=O)[C@H](CO)NC(=O)[C@H](CCC(=O)O)NC(=O)[C@H](CCCCN)NC(=O)[C@H](CCCNC(=N)N)NC(=O)[C@H](CCC(N)=O)NC(=O)[C@H](CCC(N)=O)NC(=O)[C@@H](NC(=O)[C@H](CCCNC(=N)N)NC(=O)[C@H](CCC(N)=O)NC(=O)[C@H](Cc1c[nH]cn1)NC(=O)[C@H](CCC(=O)O)NC(=O)[C@@H]1CCCN1C(=O)[C@H](CO)NC(=O)[C@H](CC(C)C)NC(=O)[C@H](Cc1ccccc1)NC(=O)[C@H](CSC(c1ccccc1)(c1ccccc1)c1ccccc1)NC(=O)[C@H](CO)NC(=O)CN)C(C)C)C(=O)N[C@@H](CCC(N)=O)C(=O)N1CCC[C@H]1C(=O)N[C@@H](CCCNC(=N)N)C(=O)O` [Compound 68, [Cys^3(Trityl)]-hGhrelin], under setting [1], the EC50 worked out at 20 nM. As for `CCCCCCCC(=O)OC[C@H](NC(=O)[C@H](CO)NC(=O)CN)C(=O)N[C@@H](Cc1ccccc1)C(=O)N[C@@H](CC(C)C)C(=O)N[C@@H](CO)C(=O)N1CCC[C@H]1C(=O)N[C@@H](CCC(=O)O)C(=O)N[C@@H](Cc1cnc[nH]1)C(=O)N[C@@H](CCC(N)=O)C(=O)N[C@@H](CCCNC(=N)N)C(=O)N[C@H](C(=O)N[C@@H](CCC(N)=O)C(=O)N[C@@H](CCC(N)=O)C(=O)N[C@@H](CCCNC(=N)N)C(=O)N[C@@H](CCCCN)C(=O)N[C@@H](CCC(=O)O)C(=O)N[C@@H](CO)C(=O)N[C@@H](CCCCN)C(=O)N[C@@H](CCCCN)C(=O)N1CCC[C@H]1C(=O)N1CCC[C@H]1C(=O)N[C@@H](C)C(=O)N[C@@H](CCCCN)C(=O)N[C@@H](CC(C)C)C(=O)N[C@@H](CCC(N)=O)C(=O)N1CCC[C@H]1C(=O)N[C@@H](CCCNC(=N)N)C(=O)O)C(C)C` [Compound 1, human Ghrelin], the EC50 by setting is: (Ca-releasing activity (EC50, nM), Table 3, Example 9: protease fragments or synthetic peptides, CHO-GHSR62 cells) 2.6 nM; under setting [1], 1.3 nM. Take `CCCCCCCC(=O)OC[C@H](NC(=O)CN)C(=O)N[C@@H](CO)C(=O)N[C@@H](Cc1ccccc1)C(=O)N[C@@H](CC(C)C)C(=O)N[C@@H](CO)C(=O)N1CCC[C@H]1C(=O)N[C@@H](CCC(=O)O)C(=O)N[C@@H](Cc1c[nH]cn1)C(N)=O` [Compound 4, [Ser^2(Octanoyl), Ser^3]-Ghrelin (1-9)-amide] (H-GS(Octanoyl)SFLSPEH-NH2): the “Ca-releasing activity relative to the 3rd-serine octanoyl parent” value (octanoyl moved from 3rd to 2nd serine) is “about 1/200”. For the compound `CCCCCCCC(=O)OC[C@H](NC(=O)[C@H](CO)NC(=O)CN)C(=O)N[C@@H](Cc1ccccc1)C(=O)N[C@@H](CCCCN)C(N)=O` [Compound 38, [Lys^5]-Ghrelin (1-5)-amide] (H-GSS(Octanoyl)FK-NH2), the “Ca-releasing activity relative to ghrelin (1-4) before addition of lysine” value is “about 50 times”. In addition, the EC50 under setting [2] was 10 nM.

On to `CCCCCCCC(=O)NCC(=O)N[C@@H](CO)C(=O)N[C@@H](CO)C(=O)N[C@@H](Cc1ccccc1)C(=O)N[C@@H](CC(C)C)C(=O)N[C@@H](CO)C(=O)N1CCC[C@H]1C(=O)N[C@@H](CCC(=O)O)C(=O)N[C@@H](Cc1c[nH]cn1)C(N)=O` [Compound 6, [N-Octanoyl, Ser^3]-Ghrelin (1-9)-amide] (Octanoyl-GSSFLSPEH-NH2), for which, under setting [2], the half-maximal effective concentration (EC50) is over 10000 nM. Same read-out and setting: for `CC(C)C[C@H](NC(=O)[C@H](CCCCN)NC(=O)[C@H](C)NC(=O)[C@@H]1CCCN1C(=O)[C@@H]1CCCN1C(=O)[C@H](CCCCN)NC(=O)[C@H](CCCCN)NC(=O)[C@H](CO)NC(=O)[C@H](CCC(=O)O)NC(=O)[C@H](CCCCN)NC(=O)[C@H](CCCNC(=N)N)NC(=O)[C@H](CCC(N)=O)NC(=O)[C@H](CCC(N)=O)NC(=O)[C@@H](NC(=O)[C@H](CCCNC(=N)N)NC(=O)[C@H](CCC(N)=O)NC(=O)[C@H](Cc1c[nH]cn1)NC(=O)[C@H](CCC(=O)O)NC(=O)[C@@H]1CCCN1C(=O)[C@H](CO)NC(=O)[C@H](CC(C)C)NC(=O)[C@H](Cc1ccccc1)NC(=O)[C@H](CC1CCCCC1)NC(=O)[C@H](CO)NC(=O)CN)C(C)C)C(=O)N[C@@H](CCC(N)=O)C(=O)N1CCC[C@H]1C(=O)N[C@@H](CCCNC(=N)N)C(=O)O` [Compound 64, [Cha^3]-hGhrelin] the value was 19 nM. On to `CCCCCCCC(=O)OC[C@H](NC(=O)[C@H](CO)NC(=O)CN)C(=O)N[C@@H](Cc1ccccc1)C(=O)N[C@@H](CC(C)C)C(=O)N[C@@H](CO)C(=O)N1CCC[C@H]1C(=O)N[C@@H](CCC(=O)O)C(=O)N[C@@H](Cc1c[nH]cn1)C(=O)N[C@@H](CCC(N)=O)C(=O)O` [Compound 25, Ghrelin (1-10)], for which the EC50 under setting [3] amounted to 19 nM.

With `CCCCCCCCCCCCCCCC(=O)OC[C@H](NC(=O)[C@H](CO)NC(=O)CN)C(=O)N[C@@H](Cc1ccccc1)C(=O)N[C@@H](CC(C)C)C(=O)N[C@@H](CO)C(=O)N1CCC[C@H]1C(=O)N[C@@H](CCC(=O)O)C(=O)N[C@@H](Cc1c[nH]cn1)C(=O)N[C@@H](CCC(N)=O)C(=O)N[C@@H](CCCCN)C(=O)N[C@@H](C)C(=O)N[C@@H](CCC(N)=O)C(=O)N[C@@H](CCC(N)=O)C(=O)N[C@@H](CCCNC(=N)N)C(=O)N[C@@H](CCCCN)C(=O)N[C@@H](CCC(=O)O)C(=O)N[C@@H](CO)C(=O)N[C@@H](CCCCN)C(=O)N[C@@H](CCCCN)C(=O)N1CCC[C@H]1C(=O)N1CCC[C@H]1C(=O)N[C@@H](C)C(=O)N[C@@H](CCCCN)C(=O)N[C@@H](CC(C)C)C(=O)N[C@@H](CCC(N)=O)C(=O)N1CCC[C@H]1C(=O)N[C@@H](CCCNC(=N)N)C(=O)O` [Compound 14, [Ser^3(Palmitoyl)]-rGhrelin], the 50% effective concentration (EC50) under setting [2] was 6.5 nM. `CCCCCCCC(=O)OC[C@H](NC(=O)[C@H](CO)NC(=O)CN)C(=O)N[C@@H](Cc1ccccc1)C(=O)N[C@@H](CC(C)C)C(=O)N[C@@H](CO)C(=O)N1CCC[C@H]1C(=O)N[C@@H](CCC(=O)O)C(=O)N[C@@H](Cc1c[nH]cn1)C(=O)N[C@@H](CCC(N)=O)C(=O)N[C@@H](CCCNC(=N)N)C(=O)O` [Compound 23, hGhrelin (1-11)]: the EC50 under setting [3] turned out to be 15 nM.

Regarding `CCCCCCCCOC[C@H](NC(=O)CCCCN)C(=O)N[C@@H](Cc1ccccc1)C(=O)N[C@@H](CC(C)C)C(=O)NC` [Compound 82, [N-Aminopentanoyl, Ser^3(Octyl)]-Ghrelin (3-5)-methylamide], the EC50 under setting [2] was 12 nM. For the compound `CCCCCCCCOC[C@@H](NC(=O)CCCCN)C(=O)N[C@H](Cc1ccccc1)C(=O)N[C@@H](CCCCN)C(N)=O` [Compound 77, [N-Aminopentanoyl, ^DSer^3(Octyl), ^DPhe^4, Lys^5]-Ghrelin (3-5)-amide], the EC50 under setting [2] was 1600 nM.

For the compound `CCCCCCCCCCCC(=O)OC[C@H](NC(=O)[C@H](CO)NC(=O)CN)C(=O)N[C@@H](Cc1ccccc1)C(=O)N[C@@H](CC(C)C)C(=O)N[C@@H](CO)C(=O)N1CCC[C@H]1C(=O)N[C@@H](CCC(=O)O)C(=O)N[C@@H](Cc1c[nH]cn1)C(=O)N[C@@H](CCC(N)=O)C(=O)N[C@@H](CCCCN)C(=O)N[C@@H](C)C(=O)N[C@@H](CCC(N)=O)C(=O)N[C@@H](CCC(N)=O)C(=O)N[C@@H](CCCNC(=N)N)C(=O)N[C@@H](CCCCN)C(=O)N[C@@H](CCC(=O)O)C(=O)N[C@@H](CO)C(=O)N[C@@H](CCCCN)C(=O)N[C@@H](CCCCN)C(=O)N1CCC[C@H]1C(=O)N1CCC[C@H]1C(=O)N[C@@H](C)C(=O)N[C@@H](CCCCN)C(=O)N[C@@H](CC(C)C)C(=O)N[C@@H](CCC(N)=O)C(=O)N1CCC[C@H]1C(=O)N[C@@H](CCCNC(=N)N)C(=O)O` [Compound 13, [Ser^3(Lauroyl)]-rGhrelin], under setting [2], the EC50 was determined as 2.4 nM. As for `CCCCCCCC(=O)OC[C@H](NC(=O)[C@H](CO)NC(=O)CN)C(N)=O` [Compound 34, Ghrelin (1-3)-amide] (H-Gly-Ser-Ser(Octanoyl)-NH2), the concentration for a half-maximal effect (EC50) under setting [2] is over 10000 nM.
